Test results as given in US20250163067A1, “NUCLEOBASE-SUBSTITUTED PIPERIDINYL-PYRIDINES AND RELATED COMPOUNDS AND THEIR USE IN TREATING DISEASES AND CONDITIONS” (K36 Therapeutics, Inc., priority 2023, published 2025).

Molecular target: recombinant human NSD2 (Homo sapiens (Human), UniProt O96028)
Assay: NSD2 inhibitory activity, modified RBC HotSpot HMT Assay
Type: biochemical
Conditions: recombinant human NSD2 (amino acids 2-end) 2 nM, chicken oligonucleosomes 0.05 mg/ml, 3H-SAM 1 μM, 1 hour at 30° C
Procedure: Exemplary compounds were tested for NSD2 inhibitory activity using a modified RBC HotSpot HMT Assay.
A reaction mixture was prepared by adding oligonucleosomes from Chicken (0.05 mg/ml) to freshly prepared reaction buffer containing 50 mM Tris-HCl (pH 8.5), 50 mM NaCl, 5 mM MgCl2, 0.01% Brij35, 1 mM DTT, and 1% DMSO followed by the addition of recombinant human NSD2, (amino acids 2-end) with N-terminal His tag (2 nM; GenBank Accession No. NM 001042424; MW=155.5 kDa; expressed in Sf9 insect cells) and gentle mixing. The test compounds were diluted in DMSO, added to the reaction mixture in nanoliter amounts by using Acoustic Technology (Echo 550, LabCyte Inc. Sunnyvale, CA) and incubated for 20 minutes at room temperature. The reaction was initiated by the addition of S-Adenosyl-L-[methyl-^3H] methionine (^3H-SAM; 1 μM), and the mixture was incubated for 1 hour at 30° C. The reaction mixture was delivered to filter paper and the methylated substrate was quantified by scintillation counting. Data analysis was performed using Excel and GraphPad Prism software for IC50 curve fits. For additional information on the histone methyltransferase assay, see, for example, Horiuchi K Y, et al., “Assay Development for Histone Methyltransferases,” Assay Drug Dev Technol. 2013 May; 11 (4): 227-36.

Chain of recombinant human NSD2 (O96028 2-1365 limits assumed): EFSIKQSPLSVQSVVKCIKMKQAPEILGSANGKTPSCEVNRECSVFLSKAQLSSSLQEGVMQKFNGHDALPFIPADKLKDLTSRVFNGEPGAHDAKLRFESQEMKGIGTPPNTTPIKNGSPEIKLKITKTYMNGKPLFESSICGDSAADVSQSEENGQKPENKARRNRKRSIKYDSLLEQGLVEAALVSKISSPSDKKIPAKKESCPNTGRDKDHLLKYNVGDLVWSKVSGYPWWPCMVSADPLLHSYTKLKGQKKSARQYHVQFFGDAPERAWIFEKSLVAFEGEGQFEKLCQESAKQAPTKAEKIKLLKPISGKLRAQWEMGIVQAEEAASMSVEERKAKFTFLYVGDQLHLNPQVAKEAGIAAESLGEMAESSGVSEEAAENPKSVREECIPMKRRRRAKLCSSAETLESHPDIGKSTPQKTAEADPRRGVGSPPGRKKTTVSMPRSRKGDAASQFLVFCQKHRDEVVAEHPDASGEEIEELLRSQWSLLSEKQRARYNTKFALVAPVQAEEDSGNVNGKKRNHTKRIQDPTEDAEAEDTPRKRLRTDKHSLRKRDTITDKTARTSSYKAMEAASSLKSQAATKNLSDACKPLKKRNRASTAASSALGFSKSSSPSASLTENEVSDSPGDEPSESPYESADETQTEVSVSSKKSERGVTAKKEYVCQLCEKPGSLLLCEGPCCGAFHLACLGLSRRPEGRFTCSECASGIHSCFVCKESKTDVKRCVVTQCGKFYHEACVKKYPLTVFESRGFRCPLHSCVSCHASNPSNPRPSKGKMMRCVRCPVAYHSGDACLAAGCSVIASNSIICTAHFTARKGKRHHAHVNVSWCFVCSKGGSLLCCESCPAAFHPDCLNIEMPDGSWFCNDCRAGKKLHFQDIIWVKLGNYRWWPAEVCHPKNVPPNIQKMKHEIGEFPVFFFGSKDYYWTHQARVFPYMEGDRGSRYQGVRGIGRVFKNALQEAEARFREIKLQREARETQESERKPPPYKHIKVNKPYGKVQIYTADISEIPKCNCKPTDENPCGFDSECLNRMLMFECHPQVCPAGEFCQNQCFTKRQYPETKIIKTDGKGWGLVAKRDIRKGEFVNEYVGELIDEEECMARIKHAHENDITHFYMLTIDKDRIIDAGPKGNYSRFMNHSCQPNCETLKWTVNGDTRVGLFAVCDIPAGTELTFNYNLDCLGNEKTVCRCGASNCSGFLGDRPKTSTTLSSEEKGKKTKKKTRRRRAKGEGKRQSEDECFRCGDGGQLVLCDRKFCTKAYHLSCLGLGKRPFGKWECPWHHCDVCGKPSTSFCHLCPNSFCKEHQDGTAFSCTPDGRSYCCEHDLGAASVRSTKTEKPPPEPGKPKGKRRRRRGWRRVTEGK

| IC50 | Structure (SMILES) |
| --- | --- |
| ≤ 1000 nM | COc1cc(F)c(-c2cc(Cc3cnc4c(N)nccn34)c(N3CCC[C@](N)([C@H](O)C(F)F)C3)cn2)cc1F [Compound I-4, (S)-1-((R)-3-AMINO-1-(4-((8-AMINOIMIDAZO [1,2-A]PYRAZIN-3-YL)METHYL)-6-(2,5-DIFLUORO-4-METHOXYPHENYL)PYRIDIN-3-YL)PIPERIDIN-3-YL)-2,2-DIFLUOROETHAN-1-OL] |
| ≤ 1000 nM | COc1cc(F)c(-c2cc(Cn3cnc4cncnc43)c(N3CCC[C@](N)([C@H](O)C(F)F)C3)cn2)cc1F [IV-1] |
| > 1000 nM | COc1cc(F)c(-c2cc(Cn3cnc4ncncc43)c(N3CCC[C@](N)([C@H](O)C(F)F)C3)cn2)cc1F [IV-2] |
| > 1000 nM | COc1cc(F)c(-c2cc(CN3CCc4cncnc43)c(N3CCC[C@](N)([C@H](O)C(F)F)C3)cn2)cc1F [IV-3] |
| > 1000 nM | COc1cc(F)c(-c2cc(Cn3ccc4cncnc43)c(N3CCC[C@](N)([C@H](O)C(F)F)C3)cn2)cc1F [IV-4] |
| ≤ 1000 nM | COc1cc(F)c(-c2cc(Cn3ccc4ncncc43)c(N3CCC[C@](N)([C@H](O)C(F)F)C3)cn2)cc1F [IV-5] |
| > 1000 nM | COc1cc(F)c(-c2cc(Cn3cnc4ccccc43)c(N3CCC[C@](N)([C@H](O)C(F)F)C3)cn2)cc1F [IV-6] |
| > 1000 nM | COc1cc(F)c(-c2cc(Cn3cnc4nccnc43)c(N3CCC[C@](N)([C@H](O)C(F)F)C3)cn2)cc1F [IV-7] |
| > 1000 nM | COc1cc(F)c(-c2cc(Cn3ncc4ncncc43)c(N3CCC[C@](N)([C@H](O)C(F)F)C3)cn2)cc1F [IV-9] |
| > 1000 nM | COc1cc(F)c(-c2cc(Cn3ncc4cncnc43)c(N3CCC[C@](N)([C@H](O)C(F)F)C3)cn2)cc1F [IV-10] |
| > 1000 nM | COc1cc(F)c(-c2cc(CN3Cc4nccnc4C3)c(N3CCC[C@](N)([C@H](O)C(F)F)C3)cn2)cc1F [IV-11] |
| > 1000 nM | COc1cc(F)c(-c2cc(Cn3ncc4nccnc43)c(N3CCC[C@](N)([C@H](O)C(F)F)C3)cn2)cc1F [IV-12] |
| > 1000 nM | COc1cc(F)c(-c2cc(Cn3ccc4nccnc43)c(N3CCC[C@](N)([C@H](O)C(F)F)C3)cn2)cc1F [IV-13] |
| > 1000 nM | COc1cc(F)c(-c2cc(Cn3ccc4ncccc43)c(N3CCC[C@](N)([C@H](O)C(F)F)C3)cn2)cc1F [IV-14] |
| > 1000 nM | COc1cc(F)c(-c2cc(Cn3ncc4cnccc43)c(N3CCC[C@](N)([C@H](O)C(F)F)C3)cn2)cc1F [IV-15] |
| > 1000 nM | COc1cc(F)c(-c2cc(Cn3cnc4c(O)nc(N)nc43)c(N3CCC[C@](N)([C@H](O)C(F)F)C3)cn2)cc1F [IV-17] |
| > 1000 nM | COc1cc(F)c(-c2cc(Cn3ccc(N)nc3=O)c(N3CCC[C@](N)([C@H](O)C(F)F)C3)cn2)cc1F [IV-18] |
| > 1000 nM | COc1cc(F)c(-c2cc(CN3CCC(=O)NC3=O)c(N3CCC[C@](N)([C@H](O)C(F)F)C3)cn2)cc1F [IV-19] |
| > 1000 nM | COc1cc(F)c(-c2cc(Cn3ccnc3)c(N3CCC[C@](N)([C@H](O)C(F)F)C3)cn2)cc1F [IV-20] |
| > 1000 nM | COc1cc(F)c(-c2cc(Cn3ccnn3)c(N3CCC[C@](N)([C@H](O)C(F)F)C3)cn2)cc1F [IV-21] |
| > 1000 nM | COc1cc(F)c(-c2cc(CN3CCNC3=O)c(N3CCC[C@](N)([C@H](O)C(F)F)C3)cn2)cc1F [IV-22] |
| > 1000 nM | COc1cc(F)c(-c2cc(Cn3ccc4cnccc43)c(N3CCC[C@](N)([C@H](O)C(F)F)C3)cn2)cc1F [IV-23] |
| > 1000 nM | COc1cc(F)c(-c2cc(CN3NCc4cnc(N)nc43)c(N3CCC[C@](N)([C@H](O)C(F)F)C3)cn2)cc1F [IV-24] |
| > 1000 nM | COc1cc(F)c(-c2cc(CNc3cc4[nH]ccc4cn3)c(N3CCC[C@](N)([C@H](O)C(F)F)C3)cn2)cc1F [IV-28] |
| > 1000 nM | COc1cc(F)c(-c2cc(Cn3cnnn3)c(N3CCC[C@](N)([C@H](O)C(F)F)C3)cn2)cc1F [IV-29] |
| > 1000 nM | COc1cc(F)c(-c2cc(Cn3cnnc3)c(N3CCC[C@](N)([C@H](O)C(F)F)C3)cn2)cc1F [IV-30] |

| Structure (SMILES) | IC50 |
| --- | --- |
| COc1cc(F)c(-c2cc(Cn3cnc4cnncc43)c(N3CCC[C@](N)([C@H](O)C(F)F)C3)cn2)cc1F [IV-8] | > 1000 nM |
